Laboratory results: patent US20240130957A1, “EXTRACTS OF ISOCHRYSIS SPECIES/TISOCHRYSIS SPECIES” (SYMRISE AG, priority 2020, published 2024)

How the values were obtained:
skin = settings: similar to the effect seen with dihydroxyacetone; cited from earlier work
UVA-induced ROS = test: Reduction of UVA-induced ROS in organ culture of human skin (DCFH-DA); type: cell-based
Procedure: Organ culture of human skin was performed starting from a skin sample, exciding pieces of approximately 8×3 mm (ø×thickness). Skin samples (6 per treatment) were cultured in an air-liquid interface in a perforated ring of stainless steel in contact with culture medium (modified Williams' E medium).
At start of the skin culture, in parallel to untreated, the formulations 14.1 to 14.3 and 100% tocopherol acetate were applied topically on the skin samples and afterwards they were cultivated overnight. On the next day, the topical treatments were renewed for 1 hour. In parallel, culture medium with 100 μM of 2′,7′-dichlorofluorescin diacetate (DCFH-DA, Sigma #D6883) was prepared. After 1 hour of incubation of the skin samples, the culture medium was replaced by the medium containing DCFH-DA and the skin samples were incubated for 30 minutes. Then, the skin samples were washed in PBS buffer and UVA irradiation (lamp: Bio Sun by Vilber Lourmat, 60 J/cm2) was performed. Afterwards, the skin samples were harvested, cryo-fixed and cut at the cryostat for image acquisition and analysis. The image acquisition was performed using Olympus BX51 microscope and Olympus DP70 camera. Two skin sections for each skin sample were cut and the related images were acquired and analysed. Doing so, 12 images were obtained for each formulation for analysis. Image analysis was performed within the dermis area selected from the upper part by following the perimeter of the basal lamina to the deep dermis. The obtained values from were normalized upon the dimension of the selected area.

Row | Compound | production of free radicals (skin) | reduction of UVA-induced ROS vs untreated UVA-irradiated (UVA-induced ROS; 100% tocopherol acetate, topical) [%] | Modulation vs untreated + UVA (UVA-induced ROS; UVA 60 J/cm2) [%] | Mean ROS score (UVA-induced ROS; UVA 60 J/cm2, topical overnight and renewed 1 hour, untreated no UVA 0.015, untreated + UVA 0.573)
1 | O=C(CO)[C@H](O)CO [Erythrulose, D-Erythrulose] | increase production of free radicals |  |  | 
2 | CC(=O)Oc1c(C)c(C)c2c(c1C)CCC(C)(CCC[C@H](C)CCC[C@H](C)CCCC(C)C)O2 (stereo partly shown) [Tocopherol acetate] |  | 73 | −73 | 0.157
